Read-outs that look alike come from different tables or passages of the source.
Columns and labels:
[1] = tested on: HOP 62 (lung cancer) cell line; test: cells; format: cell-based; details: for GI50: mean of three determinations; for LC50: read-out: LC50 HOP 62, 50% cell death
Protocol: (§1) Anticancer activity: In vitro biological activity studies were carried out at the Advance Center for Treatment Research & Education in Cancer (ACTREC), Navi Mumbai.
(§2) The compounds were evaluated for in vitro anticancer activity against eight tumour cells lines derived from seven cancer types (non-small-cell lung, colon, oral, cervix, ovarian, prostate, and breast cancer) as shown in Table 2. For each compound, dose response curves for each cell line were measured at a minimum of five concentrations at 10 fold dilutions. A protocol of 48 h continuous drug exposure was used and a sulforhodamine B (SRB) protein assay was used to estimate cell viability or growth. The concentration causing 50% cell growth inhibition (GI50) and 50% cell death (LC50, −50% growth) compared with the control was calculated. Compounds 9a-9l have been evaluated for their in vitro cytotoxicity in eight cell lines from seven human cancer types of lung (Hop-62, A-549) colon (COLO-205) cervix (Si—Ha), ovary (A-2780), prostate (PC3) breast (MCF7), oral (KB). The results are expressed as percent of cell growth determined relative to that of untreated control cells (Table-8 and table-9).

[2] = tested on: A 2780 (ovary cancer) cell line; test: cells; format: cell-based; details: for GI50: mean of three determinations
Protocol: as §1, §2

[3] = tested on: Colo 205 (colon cancer) cell line; test: cells; format: cell-based; details: for GI50: mean of three determinations
Protocol: as §1, §2

[4] = tested on: A 549 (lung cancer) cell line; test: cells; format: cell-based; details: for GI50: mean of three determinations
Protocol: as §1, §2

[5] = tested on: PC 3 (prostate cancer) cell line; test: cells; format: cell-based; details: for GI50: read-out: GI50 PC 3
Protocol: as §1, §2

[6] = tested on: MCF 7 (breast cancer) cell line; test: cells; format: cell-based; details: for GI50: read-out: GI50 MCF 7; for LC50 (concentration causing 50% cell death): read-out: LC50 MCF 7, 50% cell death
Protocol: as §1, §2

[7] = tested on: SiHa (cervix cancer) cell line; test: cells; format: cell-based; details: for GI50: mean of three determinations; for LC50 (concentration causing 50% cell death): read-out: LC50 SiHa, 50% cell death
Protocol: as §1, §2

[8] = tested on: KB (oral cancer) cell line; test: In vitro anticancer activity, SRB assay, KB; format: cell-based, human; details: for GI50: mean of three determinations; for CC50: read-out: LC50 KB, 50% cell death
Protocol: as §1, §2

[9] = tested on: eight tumour cells lines derived from seven cancer types; test: In vitro anticancer activity, SRB assay, panel of eight cell lines; format: cell-based; details: Homo sapiens, range over the eight cell lines per compound; read-out: GI50 range against cancer cell lines
Protocol: as §1, §2

[10] = tested on: duplex-form calf thymus DNA (CT-DNA); test: Thermal denaturation studies with calf thymus DNA (DNA binding affinity); details: [PBD]:[DNA] 1:5, CT-DNA 100 μM, ligand 20 μM, pH 7.00
Protocol: Compounds have been subjected to thermal denaturation studies with duplex-form calf thymus DNA (CT-DNA) using an modification of a reported procedure (Newman, M. S. Carcinog-compr. Surv. 1976,1, 203; (b) Hecht, S. S.; Loy, M.; Hoffman, Carcinog-compr. Surv. 1976, 1, 325). Working solutions in aqueous buffer (10 mM NaH2PO4/Na2HPO4, 1 mM Na2EDTA, pH 7.00+0.01) containing CT-DNA (100 μm in phosphate) and the PBD (20 μm) have been prepared by addition of concentrated PBD solutions in DMSO to obtain a fixed [PBD]/[DNA] molar ratio of 1:5. The DNA-PBD solutions have been incubated at 37° C. for 0 and 18 h prior to analysis. Samples have been monitored at 260 using a Beckman DU-800 spectrophotometer fitted with high performance temperature controller, and heated at 1° C. min^−1 in the 40-110° C. range. DNA helix→coil transition temperatures (Tm) have been obtained from the maxima in the d(A260)/dT derivative plots. Drug-induced alterations in DNA melting behavior are given by: ΔTm=Tm(DNA+PBD)−Tm(DNA alone), where the Tm value for the PBD-free CT-DNA is 69.1±0.01.
The DNA binding activity for these novel C8-linked benzothiazole, benzoxazole-PBD hybrids has been examined by thermal denaturation studies using calf thymus (CT) DNA. […] The data for the compounds 9a-n is included in Table 7 for comparison.

[11] = tested on: duplex-form calf thymus DNA (CT-DNA); details: comparative data, hybrids without piperazine, cited from earlier work
[12] = Homo sapiens, HOP-62, 48 h, read-out: GI50 HOP 62, 48 h drug exposure, SRB
[13] = Homo sapiens, HOP-62, 48 h, 48 h drug exposure, SRB
[14] = Homo sapiens, A2780, 48 h, read-out: GI50 A 2780, 48 h drug exposure, SRB
[15] = Homo sapiens, A2780, 48 h, read-out: LC50 A 2780, 50% cell death, 48 h drug exposure, SRB
[16] = Homo sapiens, COLO 205, 48 h, read-out: GI50 Colo 205, 48 h drug exposure, SRB
[17] = Homo sapiens, COLO 205, 48 h, read-out: LC50 Colo 205
[18] = Homo sapiens, A549, 48 h, read-out: GI50 A 549, 48 h drug exposure, SRB
[19] = Homo sapiens, A549, 48 h, read-out: LC50 A 549, 50% cell death, 48 h drug exposure, SRB
[20] = Homo sapiens, 48 h, read-out: LC50 Pc 3, 50% cell death, 48 h drug exposure, SRB
[21] = Homo sapiens, MCF7, 48 h, 48 h drug exposure, SRB
[22] = Homo sapiens, SiHa, 48 h, read-out: GI50 SiHa, 48 h drug exposure, SRB
[23] = Homo sapiens, SiHa, 48 h, 48 h drug exposure, SRB
[24] = Homo sapiens, 48 h, read-out: GI50 KB, 48 h drug exposure, SRB
[25] = Homo sapiens, 48 h, 48 h drug exposure, SRB
[26] = 48 h drug exposure, SRB, read-out: GI50 KB

## COc1cccc2c1C(=O)c1c(O)c3c(c(O)c1C2=O)C[C@@](O)(C(=O)CO)C[C@@H]3O[C@H]1C[C@H](N)[C@H](O)[C@H](C)O1 [ADR, adriamycin, reference compound]
[1]; Homo sapiens, HOP-62, 48 h drug exposure, SRB, read-out: GI50 HOP 62
  GI50: < 10 nM
[2]; Homo sapiens, A2780, 48 h drug exposure, SRB, read-out: GI50 A 2780
  GI50: 2 nM
[3]; Homo sapiens, COLO 205, 48 h drug exposure, SRB, read-out: GI50 Colo 205
  GI50: 14700 nM
[4]; Homo sapiens, A549, 48 h drug exposure, SRB, read-out: GI50 A 549
  GI50: 13000 nM
[5]; Homo sapiens, 48 h drug exposure, SRB, mean of three determinations
  GI50: < 10 nM
[6]; Homo sapiens, MCF7, 48 h drug exposure, SRB, mean of three determinations
  GI50: < 10 nM
[7]; Homo sapiens, SiHa, 48 h drug exposure, SRB, read-out: GI50 SiHa
  GI50: 190 nM
[8]; Homo sapiens, 48 h, 48 h drug exposure, SRB, read-out: GI50 KB
  GI50: 160 nM

## COc1cc2c(cc1OCCCN1CCN(CCCOc3ccc(-c4nc5ccccc5s4)cc3)CC1)N=C[C@@H]1CCCN1C2=O [Compound 9a]
[1]; [12]
  GI50: 100 nM
[1]; [13]
  LC50: 27000 nM
[2]; [14]
  GI50: 108 nM
[2]; [15]
  CC50: 23000 nM
[3]; [16]
  GI50: 100 nM
[3]; [17]
  CC50: > 100000 nM
[4]; [18]
  GI50: 130 nM
[4]; [19]
  CC50: > 100000 nM
[5]; Homo sapiens, 48 h
  GI50: 120 nM
[5]; [20]
  CC50: 28000 nM
[6]; Homo sapiens, MCF7, 48 h
  GI50: < 10 nM
[6]; [21]
  LC50 (concentration causing 50% cell death): 1900 nM
[7]; [22]
  GI50: 130 nM
[7]; [23]
  LC50 (concentration causing 50% cell death): 27500 nM
[9]
  GI50: ≤ 130 nM
[10]
  ΔTm after incubation at 37° C. for 0 h: 10.2 °C
  ΔTm after incubation at 37° C. for 18 h: 10.8 °C
[8]; [24]
  GI50: 120 nM
[8]; [25]
  CC50: 2400 nM

## COc1cc2c(cc1OCCCCN1CCN(CCCCOc3ccc(-c4nc5ccccc5s4)cc3)CC1)N=C[C@@H]1CCCN1C2=O [Compound 9e, 7-Methoxy-8-[4-(4-{4-[4(1,3-benzothiazol-2-yl)-phenoxy]butyl}piperazin-1-yl)butyl]oxy-(11aS)-1,2,3,11a-tetrahydro-5H-pyrrolo[2,1-c][1,4]benzodiazepin-5-one]
[1]; human, 48 h
  CC50: 27000 nM
[1]; read-out: GI50 HOP 62, 48 h drug exposure, SRB
  GI50: < 10 nM
[2]; [14]
  GI50: 97 nM
[2]; human, 48 h
  CC50: 2200 nM
[3]; human, 48 h
  CC50: > 100000 nM
[3]; read-out: GI50 Colo 205, 48 h drug exposure, SRB
  GI50: 120 nM
[4]; human, 48 h
  CC50: > 100000 nM
[4]; read-out: GI50 A 549, 48 h drug exposure, SRB
  GI50: 105 nM
[5]; Homo sapiens, 48 h
  GI50: < 10 nM
[5]; human, 48 h
  CC50: 2500 nM
[6]; Homo sapiens, MCF7, 48 h
  GI50: < 10 nM
[6]; human, 48 h
  CC50: 150 nM
[7]; [22]
  GI50: 107 nM
[7]; human, 48 h
  CC50: 27800 nM
[10]
  ΔTm after incubation at 37° C. for 0 h: 12.2 °C
  ΔTm after incubation at 37° C. for 18 h: 12.6 °C
[8]; 50% cell death, 48 h drug exposure, SRB
  LC50 KB: 2300 nM
[8]; [26]
  GI50: <10 nM

## COc1cc2c(cc1OCCCCN1CCN(CCCCOc3cccc(-c4nc5ccccc5s4)c3)CC1)N=C[C@@H]1CCCN1C2=O [Compound 9h, 7-Methoxy-8-[4-(4-{4-[3(1,3-benzothiazol-2-yl)-phenoxy]butyl}piperazin-1-yl)butyl]oxy-(11aS)-1,2,3,11a-tetrahydro-5H-pyrrolo[2,1-c][1,4]benzodiazepin-5-one]
[1]; [12]
  GI50: 100 nM
[1]; [13]
  LC50: 27000 nM
[2]; [14]
  GI50: 109 nM
[2]; [15]
  CC50: 2300 nM
[3]; [16]
  GI50: 160 nM
[3]; [17]
  CC50: > 100000 nM
[4]; [18]
  GI50: 120 nM
[4]; [19]
  CC50: > 100000 nM
[5]; Homo sapiens, 48 h
  GI50: 140 nM
[5]; [20]
  CC50: 2400 nM
[6]; Homo sapiens, MCF7, 48 h
  GI50: 120 nM
[6]; [21]
  LC50 (concentration causing 50% cell death): 2200 nM
[7]; [22]
  GI50: 130 nM
[7]; [23]
  LC50 (concentration causing 50% cell death): 27000 nM
[10]
  ΔTm after incubation at 37° C. for 0 h: 11.9 °C
  ΔTm after incubation at 37° C. for 18 h: 12.3 °C
[8]; [24]
  GI50: 120 nM
[8]; [25]
  CC50: 200 nM

## COc1cc(-c2nc3ccccc3s2)ccc1OCCCCN1CCN(CCCCOc2cc3c(cc2OC)C(=O)N2CCC[C@H]2C=N3)CC1 [Compound 9m, 7-Methoxy-8-[4-(4-{4-[4(1,3-benzothiazol-2-yl)-2-methoxyphenoxy]butyl}piperazin-1-yl)butyl]oxy-(11aS)-1,2,3,11a-tetrahydro-5H-pyrrolo[2,1-c][1,4]benzodiazepin-5-one]
[10]
  ΔTm after incubation at 37° C. for 0 h: 12.1 °C
  ΔTm after incubation at 37° C. for 18 h: 12.5 °C

## COc1cc2c(cc1OCCCCN1CCN(CCCCOc3cccc(-c4nc5ccccc5s4)c3)CC1)N=C[C@@H]1CCCN1C2=O [Compound 9n, 7-Methoxy-8-[4-(4-{4-[3(1,3-benzothiazol-2-yl)-phenoxy]butyl}piperazin-1-yl)butyl]oxy-(11aS)-1,2,3,11a-tetrahydro-5H-pyrrolo[2,1-c][1,4]benzodiazepin-5-one]
[10]
  ΔTm after incubation at 37° C. for 0 h: 10.3 °C
  ΔTm after incubation at 37° C. for 18 h: 10.6 °C

## COc1cc2c(cc1OCCCCCOc1ccc(-c3nc4ccccc4o3)cc1)N=C[C@@H]1CCCN1C2=O [Compound 30a]
[11]
  ΔTm after incubation at 37° C. for 0 h (PBD hybrids with out piperizine): 4.1 °C
  ΔTm after incubation at 37° C. for 18 h (PBD hybrids with out piperizine): 4.3 °C

## COc1cc(-c2nc3ccccc3o2)ccc1OCCCCCOc1cc2c(cc1OC)C(=O)N1CCC[C@H]1C=N2 [Compound 30b]
[11]
  ΔTm after incubation at 37° C. for 0 h (PBD hybrids with out piperizine): 4.2 °C
  ΔTm after incubation at 37° C. for 18 h (PBD hybrids with out piperizine): 4.3 °C

## COc1cc2c(cc1O)N=CC1CCCN1C2=O (stereo not shown) [DC-81, reference compound]
[1]; 48 h drug exposure, SRB, read-out: GI50 HOP 62
  GI50: 110 nM
[2]; 48 h drug exposure, SRB, read-out: GI50 A 2780
  GI50: 130 nM
[3]; 48 h drug exposure, SRB, read-out: GI50 Colo 205
  GI50: 100 nM
[6]; 48 h drug exposure, SRB, mean of three determinations
  GI50: 160 nM
[7]; 48 h drug exposure, SRB, read-out: GI50 SiHa
  GI50: 160 nM
[10]
  ΔTm after incubation at 37° C. for 0 h: 0.3 °C
  ΔTm after incubation at 37° C. for 18 h: 0.7 °C
[8]; [26]
  GI50: 170 nM

From US8637665B2, “Pyrrolo[2,L-C][L,4]benzodiazepine-benzothiazole or benzoxazole conjugates linked through piperazine moiety and process for the preparation thereof” (priority 2010, dated 2014)
